# Measurements as given in article PMC5399005, “Degradation of lignin β‐aryl ether units in Arabidopsis thaliana expressing LigD, LigF and LigG from Sphingomonas paucimobilis SYK‐6” (Plant Biotechnology Journal, 2016).
# Tests used:
# Type in all cases: biochemical
# LigD = biological target: T1, LigD (Sphingobium sp. SYK-6, UniProt Q01198); test: LC-MS product detection with leaf extract of transgenic Arabidopsis; settings: 0.5 mM GGE, 1 mM NAD+, 1 mM GSH, 100 mM phosphate pH 7.5, room temperature, 16 h; product MPHPV
# T1 sequence (Q01198 1-305): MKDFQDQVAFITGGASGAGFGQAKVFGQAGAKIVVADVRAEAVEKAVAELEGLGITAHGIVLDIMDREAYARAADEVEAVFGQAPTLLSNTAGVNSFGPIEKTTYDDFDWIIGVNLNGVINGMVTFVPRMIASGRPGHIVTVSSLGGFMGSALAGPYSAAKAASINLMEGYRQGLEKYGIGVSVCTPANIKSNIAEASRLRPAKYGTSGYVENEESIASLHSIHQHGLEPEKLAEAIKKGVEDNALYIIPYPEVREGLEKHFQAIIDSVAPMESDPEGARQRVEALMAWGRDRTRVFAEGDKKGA
# LigG = biological target: T2, LigG (Sphingomonas paucimobilis, UniProt Q9WXJ9); test: as above; settings: GS-HPV from LigF reaction mixture, GSH, 100 mM phosphate pH 7.5
# T2 construct: codon-optimised, barley alpha-amylase signal peptide added, expressed in Arabidopsis (crude leaf extract)
# T2 sequence (Q9WXJ9 1-265): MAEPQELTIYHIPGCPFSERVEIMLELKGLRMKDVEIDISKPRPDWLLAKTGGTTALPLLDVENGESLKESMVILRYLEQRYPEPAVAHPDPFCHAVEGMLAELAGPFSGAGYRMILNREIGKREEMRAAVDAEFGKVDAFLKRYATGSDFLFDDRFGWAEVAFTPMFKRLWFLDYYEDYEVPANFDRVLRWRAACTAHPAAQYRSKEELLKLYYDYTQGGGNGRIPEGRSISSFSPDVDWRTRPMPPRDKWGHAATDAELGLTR
# LigF = biological target: T3, LigF (Sphingobium sp. SYK-6, UniProt P30347); test: LC-MS product detection with leaf extract of transgenic Arabidopsis (also E. coli extract); settings: 0.5 mM MPHPV, 1 mM GSH, 1 mM NAD+, 100 mM phosphate pH 7.5, room temperature, 16 h; product GS-HPV
# T3 construct: also pETSTREP in E. coli BL21(DE3)
# T3 sequence (P30347 1-257): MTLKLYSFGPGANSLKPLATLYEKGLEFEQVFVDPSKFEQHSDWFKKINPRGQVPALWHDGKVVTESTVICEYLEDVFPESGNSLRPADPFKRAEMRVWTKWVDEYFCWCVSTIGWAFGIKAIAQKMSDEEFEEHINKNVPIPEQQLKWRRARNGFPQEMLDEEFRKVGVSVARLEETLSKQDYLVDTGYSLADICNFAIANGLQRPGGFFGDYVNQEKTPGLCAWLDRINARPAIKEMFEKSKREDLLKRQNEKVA
structure (smiles),measurement,setting,value
COc1cc(C(O)C(CO)Oc2ccccc2OC)ccc1O (stereo not drawn) [GGE],LC-MS product detection with leaf extract of transgenic Arabidopsis,LigD,"GGE, MPHPV and GS‐HPV were used as a substrate to monitor the catalytic function"
COc1cc(C(=O)C(CO)SC[C@H](NC(=O)CC[C@H](N)C(=O)O)C(=O)NCC(=O)O)ccc1O (stereo partly drawn) [GS-HPV],LC-MS product detection with leaf extract of transgenic Arabidopsis,LigG,The reaction mixture obtained contained mainly GS‐HPV and was used to test for LigG activity
"COc1cc(C(=O)C(CO)Oc2ccccc2OC)ccc1O (stereo not drawn) [S4, MPHPV]",LC-MS product detection with leaf extract of transgenic Arabidopsis (also E. col),LigF,produced enzymatically by incubation of MPHPV with protein extracts of Escherichia coli expressing LigF
